Reference: patent publication US12065435B2, “Compounds for the treatment of glycogen storage disorders” (HADASIT MEDICAL RESEARCH SERVICES AND DEVELOPMENT LTD., priority 2017, dated 2024)

Experiments:
[1] = tested on: polyglucosan body (PB) in APBD patient-derived fibroblasts; assay: High content (image-based) PAS screening assay for polyglucosan bodies; type: cell-based, human; conditions: 0, 1, 5, 10 and 50 μM
Protocol: All the steps of the assay were performed automatically using a Freedom Evo 150 liquid handling robot (Tecan). APBD patient-derived fibroblasts were seeded at a density of 800 cells/well in DMEM (Gibco) supplemented with 1 mM sodium pyruvate (Gibco), 1% antibiotics (Biological Industries, Israel) and 5% fetal bovine serum (Hyclone) into 384 well microclear plates (Greiner). The plates were transferred by the robotic arm (RoMa) into an automated incubator (Liconic), integrated with the robotic system, where they were incubated at 37° C. with 5% CO2. Following 24 h incubation, the medium was replaced by the robot using medium supplemented with 10 μM of each screened compound (0.1% DMSO final concentration, all prepared by the robot). The screened compounds were part of the Diverset CL collection purchased from ChemBridge (10,084 out of 50,000 molecules).
Next, these cells were cultured for another 24 h in the automated incubator, and, using the robot, washed them with PBS (Biological Industries, Israel), the cells were fixed with 4% paraformaldehyde (PFA), washed again with PBS, neutralized the previously added PFA by ammonium chloride (Sigma Aldrich), washed with PBS, permeabilized with 0.1% Triton X-100 (Sigma Aldrich), and washed again with PBS.
Following this, a robot was used to treat the fixed cells with 0.5 g/dl diastase (or amylase, Sigma Aldrich) for 5 minutes at 37° C. in the automated incubator, wash with PBS, stained with PAS (Merck), Hoechst 33342 (Sigma Aldrich) and Cell Mask Deep Red (Molecular Probes) and wash with PBS. Images of stained cells were then acquired by the IN Cell Analyzer 2000 (GE Healthcare) and analyzed using the IN Cell Investigator (GE Healthcare) applying an algorithm that quantified the PAS signal within each Cell Mask stained cell.
Images were segmented based on the Cell Mask signal which was linked with the segmentation of the nuclei, employing an empirically established sensitivity and kernel size for allowing the best segmentation. Once these nucleus-cytoplasm complex objects were selected, the software calculated the number of these objects (cell number) as well as the intensity of the PAS signal within each of them. All the assay parameters (including the acquisition exposure times, objective, and the analysis parameters) were kept constant throughout the whole screening campaign for allowing comparison of signals obtained from different batches of assay within the campaign.
The assay was performed as mentioned above, but with compound concentrations of 1, 5, 10, and 50 μM, instead of a constant concentration of 10 μM.
The discarded data was presumably associated with cells affected by toxic compounds. In the remaining data, the measured population mean PB intensity was normalized. Based on a series of images used for training, compounds were considered as positive only where following treatment the normalized PB mean intensity was at least under −1.2 z-score of the scale. Following this approach, 85 potential hits out of the 10,084 screened compounds were selected (0.84%).

[2] = tested on: APBD modeling mice (Gbe^Y329S/Y329S mouse model); assay: Motor parameters in APBD modeling mice; type: in vivo
Protocol: This study was conducted in compounds A and B according to the schemes described in Tables 8 and 9, respectively.
As vehicle control, 0.1% DMSO was used. It is noteworthy that, in order to have a statistically significant number of animals, compound A was tested in male mice and compound B in female mice (no mixed cages were allowed).
APBD is an autosomal disease with no gender related symptoms and it was presumed that this experimental design is optimal. The mode of delivery of the compounds was intravenous (IV) injection for the first month, followed by subcutaneous injection due to lack of injection space and scaring in animal tails.
Tables 8 and 9 describe the study design for compounds A and B. both compounds were tested at the age of 4 months, two months prior to disease onset, in order to assess possible prophylactic effects, and at the age of 6 months, at disease onset, in order to assess corrective effects.
The effect of compounds A and B on various motor parameters was tested every two weeks. The results are shown in herein.
The point of reference is one time point prior to treatment initiation. Please note, since animals first treated with the compounds at 6 months of age were not injected at all before that age, they could not have been compared to animals pre-injected with vehicle. Therefore, the duration of the longitudinal studies for the cohorts first treated at the age of 6 months is shorter than that of the animals first treated at 4 months of age.

[3] = biological target: T1, recombinant human GS1 (Homo sapiens, UniProt P13807); assay: In vitro GS activity assay; type: biochemical; conditions: 50 μM; unpaired t-tests, p<0.05
T1 sequence (P13807 1-737): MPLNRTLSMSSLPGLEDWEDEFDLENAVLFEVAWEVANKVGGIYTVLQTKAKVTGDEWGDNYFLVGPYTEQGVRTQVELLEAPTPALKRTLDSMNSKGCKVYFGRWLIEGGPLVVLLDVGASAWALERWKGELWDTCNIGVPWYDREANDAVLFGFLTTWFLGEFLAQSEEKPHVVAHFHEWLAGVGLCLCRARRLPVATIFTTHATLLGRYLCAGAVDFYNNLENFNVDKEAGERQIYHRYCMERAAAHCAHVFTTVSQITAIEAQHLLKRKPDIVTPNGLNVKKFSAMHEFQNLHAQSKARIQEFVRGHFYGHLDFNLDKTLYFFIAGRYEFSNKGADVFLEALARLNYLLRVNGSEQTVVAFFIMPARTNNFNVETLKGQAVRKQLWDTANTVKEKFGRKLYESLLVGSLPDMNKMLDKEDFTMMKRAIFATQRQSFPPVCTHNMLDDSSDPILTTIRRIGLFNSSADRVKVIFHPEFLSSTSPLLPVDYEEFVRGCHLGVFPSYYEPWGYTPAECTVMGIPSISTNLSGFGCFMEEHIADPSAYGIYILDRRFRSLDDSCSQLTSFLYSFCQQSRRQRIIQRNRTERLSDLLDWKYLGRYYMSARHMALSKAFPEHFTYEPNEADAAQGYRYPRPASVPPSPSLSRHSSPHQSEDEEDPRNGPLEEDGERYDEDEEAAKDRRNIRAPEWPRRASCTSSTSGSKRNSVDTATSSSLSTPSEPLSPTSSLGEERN
Protocol: The reaction was carried out in 96-well plates containing 50 μl of reaction volume (50 mM Tris, pH8, 20 mM EDTA, 25 mM KF, 2 mg/ml glycogen, 10 mM Glucose-6-Phosphate, 1.65 mM UDP[14C]glucose and 100 mM UDP-glucose). To test the inhibitory effect of the hits, each one was included in the reaction at a final concentration of 50 μM. The reaction was initiated with the addition of 20 nM recombinant human GS1, followed by incubation at 37° C. for 30 min. The reaction was then stopped with the addition of 100 μl cold 100% ethanol, and the total suspension was transferred into a 96-well filter plate. Vacuum was applied to remove the ethanol. Five washing steps with 150 μl of cold 66% ethanol then fully removed any non-incorporated UDP[14C]glucose, while the labelled glycogen stayed on the well filters. The plate was dried at 37° C. incubator for 30 min. 50 μl of scintillation fluid was added to each well and the plate was read for 14C signal on Microplate scintillation and luminescence counter Top Count (Perkin Elmer).

[4] = treated from 4 months of age (2 months before onset), two way ANOVA with repeated measures
[5] = treated from 4 months of age, Bonferroni's multiple comparisons test
[6] = treated from 6 months of age (at onset), two way ANOVA with repeated measures
[7] = treated from 6 months of age, Bonferroni's multiple comparisons test

COCc1c(C(=O)N2[C@@H]3CC[C@H]2CN(C)C(=O)C3)noc1C (relative stereo) [UDP #19, (1S*,6R*)-9-{[4-(methoxymethyl)-5-methylisoxazol-3-yl]carbonyl}-3-methyl-3,9-diazabicyclo[4.2.1]nonan-4-one]
dose response of diastase resistant cell associated mean PAS intensity normalized by z-score [1]: concentration dependent | apathy, mobility and responsiveness to experimenter ([2]; 250 mg/kg, IV first month then subcutaneous): less apathic, more mobile and more responsive to intervention by the experimenter | ameliorating effect on motor parameters (summary) ([2]; 250 mg/kg, IV first month then subcutaneous, tested every two weeks): ameliorate grip strength | average duration in movement in an open field test vs vehicle [2, 4]: not different from vehicle (p<0.1) | average front paw grip strength vs vehicle [2, 4]: different from vehicle with p<0.055 | average gait length vs vehicle [2, 4]: not different from vehicle (p<0.1) | average gait width vs vehicle [2, 4]: not different from vehicle (p<0.1) | average latency to fall off a metal wire vs vehicle [2, 4]: not different from vehicle (p<0.1) | average latency to fall off a rotating cylinder (rotarod) vs vehicle [2, 4]: the latency to fall was shorter in treated animals (p<0.089) | average regularity of step distance (Coefficient of Variance of all R-R and L-L step distances) vs vehicle [2, 4]: not different from vehicle (p<0.1) | average uniformity of step alternation (|0.5-(R-L/R-R)|) vs vehicle [2, 4]: not different from vehicle (p<0.1) | extension reflex vs vehicle [2, 4]: not different from vehicle (p<0.1) | average duration in movement in an open field test vs vehicle [2, 5]: no significant difference | average front paw grip strength vs vehicle [2, 5]: no significant difference | average gait length vs vehicle [2, 5]: no significant difference | average gait width vs vehicle [2, 5]: no significant difference | average latency to fall off a metal wire vs vehicle [2, 5]: no significant difference | average latency to fall off a rotating cylinder (rotarod) vs vehicle [2, 5]: 57 days after treatment initiation latency to fall was lower in treated mice as compared to vehicle control (p<0.05) | average regularity of step distance vs vehicle [2, 5]: no significant difference | average uniformity of step alternation vs vehicle [2, 5]: no significant difference | extension reflex vs vehicle [2, 5]: no significant difference | average duration in movement in an open field test vs vehicle [2, 6]: not different from vehicle (p<0.1) | average front paw grip strength vs vehicle [2, 6]: different from vehicle with p<0.1 | average gait length vs vehicle [2, 6]: not different from vehicle (p<0.1) | average gait width vs vehicle [2, 6]: not different from vehicle (p<0.1) | average latency to fall off a metal wire vs vehicle [2, 6]: not different from vehicle (p<0.1) | average latency to fall off a rotating cylinder (rotarod) vs vehicle [2, 6]: the latency to fall was shorter in treated animals (p<0.089) | average regularity of step distance vs vehicle [2, 6]: not different from vehicle (p<0.1) | average uniformity of step alternation (|0.5-(R-L/R-R)|) vs vehicle [2, 6]: not different from vehicle (p<0.1) | extension reflex vs vehicle [2, 6]: not different from vehicle (p<0.1) | average duration in movement in an open field test vs vehicle [2, 7]: no significant difference | average front paw grip strength vs vehicle [2, 7]: no significant difference | average gait length vs vehicle [2, 7]: no significant difference | average gait width vs vehicle [2, 7]: no significant difference | average latency to fall off a metal wire vs vehicle [2, 7]: no significant difference | average latency to fall off a rotating cylinder (rotarod) vs vehicle [2, 7]: no significant difference | average regularity of step distance vs vehicle [2, 7]: no significant difference | average uniformity of step alternation vs vehicle [2, 7]: a significant difference (p<0.05) between vehicle and treatment at 53 days after treatment initiation | extension reflex vs vehicle [2, 7]: no significant difference | effect on GS activity (direction of change) [3]: increasing
